{"source": "patent US20070015823A1", "about": "“Ambruticin VS compounds” (priority 2004, published 2007)", "key": {"C. immitis": {"tested_on": "C. immitis", "assay": "microbe, parasite or virus in culture", "type": "cell-based, Coccidioides immitis", "conditions": "Coccidioides immitis"}, "Cryptococcus neoformans": {"tested_on": "Cryptococcus neoformans", "assay": "Broth microdilution antifungal susceptibility, NCCLS M38-A", "conditions": "for MIC: Cryptococcus neoformans; for MIC C. neoformans 97-14: strain 97-14; for MIC C. neoformans 97-14 / MIC C. neoformans 11239 / MIC C. neoformans 11240: 50% growth inhibition, range = minimum and maximum of multiple assays; for MIC C. neoformans 11239: strain 11239; for MIC C. neoformans 11240: strain 11240"}, "A. fumigatus ATCC 204305": {"tested_on": "A. fumigatus ATCC 204305", "assay": "Broth microdilution antifungal susceptibility, NCCLS M38-A", "type": "cell-based, Aspergillus fumigatus", "conditions": "minimal concentration inhibiting >95% growth, average of at least two assays (except I-l and I-x)"}, "Blastomyces dermatitidis": {"tested_on": "Blastomyces dermatitidis", "assay": "Broth microdilution antifungal susceptibility, NCCLS M38-A", "type": "cell-based", "conditions": "Blastomyces dermatitidis"}, "S. apiospermum": {"tested_on": "S. apiospermum", "assay": "Broth microdilution antifungal susceptibility, NCCLS M38-A", "type": "cell-based, Scedosporium apiospermum", "conditions": "for MIC: Scedosporium apiospermum, 50% growth inhibition, range = minimum and maximum of multiple assays"}, "A. flavus ATCC 204304": {"tested_on": "A. flavus ATCC 204304", "assay": "Broth microdilution antifungal susceptibility, NCCLS M38-A", "type": "cell-based, Aspergillus flavus", "conditions": "minimal concentration inhibiting >95% growth, average of at least two assays (except I-l and I-x)"}, "Fusarium solani": {"tested_on": "Fusarium solani", "assay": "Broth microdilution antifungal susceptibility, NCCLS M38-A", "type": "cell-based", "conditions": "strain 96-1, 50% growth inhibition, range = minimum and maximum of multiple assays"}, "C. posadasii": {"tested_on": "C. posadasii", "assay": "microbe, parasite or virus in culture", "type": "cell-based, Coccidioides posadasii", "conditions": "Coccidioides posadasii"}, "Candida albicans": {"tested_on": "Candida albicans", "conditions": "50% growth inhibition, range = minimum and maximum of multiple assays; for MIC C. albicans 24433: strain 24433; for MIC C. albicans 90028: strain 90028"}}, "note": "Like-named read-outs stand apart in the source and are kept apart here.", "data": [{"compound": "CC[C@H]1O[C@@H](C(C)C[C@H](C)/C=C/[C@H]2[C@@H](C)[C@@H]2/C=C/[C@@H]2O[C@H](CC(=O)O)CC(O)[C@H]2O)CC=C1C", "note": "(stereo partly drawn) [Ambruticin S, (5S,6R)-5,6-dihydroxypoly-angioic acid, reference compound]", "values": [{"measurement": "MIC", "setting": "C. immitis; read-out: MIC C. immitis RMS 2281", "result": 2, "unit": "µg/mL"}, {"measurement": "MIC", "setting": "C. immitis; read-out: MIC C. immitis RS", "result": 2, "unit": "µg/mL"}, {"measurement": "MIC", "setting": "C. immitis; read-out: MIC C. immitis S46", "result": 4, "unit": "µg/mL"}, {"measurement": "MIC", "setting": "Cryptococcus neoformans; read-out: MIC C. neoformans 97-14", "result": 8, "unit": "µg/mL"}, {"measurement": "MIC", "setting": "Cryptococcus neoformans; read-out: MIC C. neoformans 11239", "result": 4, "unit": "µg/mL"}, {"measurement": "MIC", "setting": "Cryptococcus neoformans; read-out: MIC C. neoformans 11240", "result": 16, "unit": "µg/mL"}, {"measurement": "MIC", "setting": "A. fumigatus ATCC 204305; Aspergillus fumigatus, ATCC204305, read-out: MIC0 A. fumigatus ATCC 204305", "result": 29.3, "unit": "µg/mL"}, {"measurement": "MIC", "setting": "Blastomyces dermatitidis; read-out: MIC0 Blastomyces dermatitidis R-35629", "result": 0.125, "unit": "µg/mL"}, {"measurement": "MIC", "setting": "Blastomyces dermatitidis; strain 04-2167, >95% growth inhibition, read-out: MIC0 Blastomyces dermatitidis 04-2167", "result": 0.125, "unit": "µg/mL"}, {"measurement": "MIC", "setting": "Blastomyces dermatitidis; strain 04-2508, >95% growth inhibition, read-out: MIC0 Blastomyces dermatitidis 04-2508", "result": 0.25, "unit": "µg/mL"}, {"measurement": "MIC", "setting": "Blastomyces dermatitidis; strain 04-2915, >95% growth inhibition, read-out: MIC0 Blastomyces dermatitidis 04-2915", "result": 1, "unit": "µg/mL"}, {"measurement": "MIC", "setting": "Blastomyces dermatitidis; strain 05-106, >95% growth inhibition, read-out: MIC0 Blastomyces dermatitidis 05-106", "result": 0.5, "unit": "µg/mL"}, {"measurement": "MIC", "setting": "Blastomyces dermatitidis; strain 05-186, >95% growth inhibition, read-out: MIC0 Blastomyces dermatitidis 05-186", "result": 0.125, "unit": "µg/mL"}, {"measurement": "MIC", "setting": "Blastomyces dermatitidis; strain 05-1391, >95% growth inhibition, read-out: MIC0 Blastomyces dermatitidis 05-1391", "result": 0.06, "unit": "µg/mL"}, {"measurement": "MIC", "setting": "Blastomyces dermatitidis; strain 05-1707, >95% growth inhibition, read-out: MIC0 Blastomyces dermatitidis 05-1707", "result": "≤ 0.015", "unit": "µg/mL"}, {"measurement": "MIC", "setting": "Blastomyces dermatitidis; strain 05-1820, >95% growth inhibition, read-out: MIC0 Blastomyces dermatitidis 05-1820", "result": 0.125, "unit": "µg/mL"}, {"measurement": "MIC", "setting": "Blastomyces dermatitidis; strain 05-1829, >95% growth inhibition, read-out: MIC0 Blastomyces dermatitidis 05-1829", "result": 0.25, "unit": "µg/mL"}, {"measurement": "MIC", "setting": "Blastomyces dermatitidis; strain 05-2020, >95% growth inhibition, read-out: MIC0 Blastomyces dermatitidis 05-2020", "result": 0.06, "unit": "µg/mL"}, {"measurement": "MIC", "setting": "Blastomyces dermatitidis; strain R-3529, >95% growth inhibition, read-out: MIC0 Blastomyces dermatitidis R-3529", "result": 0.06, "unit": "µg/mL"}, {"measurement": "MIC", "setting": "S. apiospermum; strain 94-54, read-out: MIC S. apiospermum 94-54", "result": "> 32", "unit": "µg/mL"}, {"measurement": "MIC", "setting": "S. apiospermum; strain 98-38, read-out: MIC S. apiospermum 98-38", "result": "> 32", "unit": "µg/mL"}, {"measurement": "MIC", "setting": "S. apiospermum; strain 98-89, read-out: MIC S. apiospermum 98-89", "result": 4, "unit": "µg/mL"}, {"measurement": "MIC", "setting": "A. flavus ATCC 204304; Aspergillus flavus, ATCC204304, read-out: MIC0 A. flavus ATCC 204304", "result": 28.4, "unit": "µg/mL"}, {"measurement": "MIC", "setting": "Fusarium solani; Fusarium solani, read-out: MIC F. solani 96-1", "result": "> 32", "unit": "µg/mL"}, {"measurement": "MIC", "setting": "C. posadasii; read-out: MIC C. posadasii C735", "result": 4, "unit": "µg/mL"}, {"measurement": "MIC", "setting": "C. posadasii; read-out: MIC C. posadasii RMSCC 2127", "result": 2, "unit": "µg/mL"}, {"measurement": "MIC", "setting": "C. posadasii; read-out: MIC C. posadasii Silveria", "result": 2, "unit": "µg/mL"}]}, {"compound": "CC[C@H]1O[C@@H](/C(C)=C/[C@H](C)/C=C/[C@H]2[C@@H](C)[C@@H]2/C=C/[C@@H]2O[C@H](CC(=O)O)C[C@H](N(C)Cc3cccnc3)[C@H]2O)CC=C1C", "note": "[I-w, (5S,6R)-5-(N-(3-pyridyl)methyl-methylamino)-6-hydroxypolyangioic acid]", "values": [{"measurement": "MIC C. albicans 24433", "setting": "Candida albicans", "result": ">32", "unit": "µg/mL"}, {"measurement": "MIC C. albicans 90028", "setting": "Candida albicans", "result": ">32", "unit": "µg/mL"}, {"measurement": "MIC C. neoformans 97-14", "setting": "Cryptococcus neoformans", "result": 1, "unit": "µg/mL"}, {"measurement": "MIC C. neoformans 11239", "setting": "Cryptococcus neoformans", "result": 0.5, "unit": "µg/mL"}, {"measurement": "MIC C. neoformans 11240", "setting": "Cryptococcus neoformans", "result": "0.5 to 1", "unit": "µg/mL"}, {"measurement": "MIC0 A. fumigatus ATCC 204305", "setting": "A. fumigatus ATCC 204305", "result": 4.25, "unit": "µg/mL"}, {"measurement": "MIC S. apiospermum 94-54", "setting": "S. apiospermum", "result": ">16", "unit": "µg/mL"}, {"measurement": "MIC S. apiospermum 98-38", "setting": "S. apiospermum", "result": ">16", "unit": "µg/mL"}, {"measurement": "MIC S. apiospermum 98-89", "setting": "S. apiospermum", "result": 2, "unit": "µg/mL"}, {"measurement": "MIC0 A. flavus ATCC 204304", "setting": "A. flavus ATCC 204304", "result": 4, "unit": "µg/mL"}, {"measurement": "MIC F. solani 96-1", "setting": "Fusarium solani", "result": ">16", "unit": "µg/mL"}]}, {"compound": "(5S,6R)-5-(N-(4-imidazolyl)methyl-methylamino)-6-hydroxypolyangioic acid [I-h]", "values": [{"measurement": "MIC C. albicans 24433", "setting": "Candida albicans", "result": ">32", "unit": "µg/mL"}, {"measurement": "MIC C. albicans 90028", "setting": "Candida albicans", "result": ">32", "unit": "µg/mL"}, {"measurement": "MIC C. neoformans 97-14", "setting": "Cryptococcus neoformans", "result": 0.5, "unit": "µg/mL"}, {"measurement": "MIC C. neoformans 11239", "setting": "Cryptococcus neoformans", "result": 0.25, "unit": "µg/mL"}, {"measurement": "MIC C. neoformans 11240", "setting": "Cryptococcus neoformans", "result": 0.25, "unit": "µg/mL"}, {"measurement": "MIC0 A. fumigatus ATCC 204305", "setting": "A. fumigatus ATCC 204305", "result": 2.1, "unit": "µg/mL"}, {"measurement": "MIC S. apiospermum 94-54", "setting": "S. apiospermum", "result": ">16", "unit": "µg/mL"}, {"measurement": "MIC S. apiospermum 98-38", "setting": "S. apiospermum", "result": ">16", "unit": "µg/mL"}, {"measurement": "MIC S. apiospermum 98-89", "setting": "S. apiospermum", "result": "0.125 to 0.25", "unit": "µg/mL"}, {"measurement": "MIC0 A. flavus ATCC 204304", "setting": "A. flavus ATCC 204304", "result": 1.0, "unit": "µg/mL"}, {"measurement": "MIC F. solani 96-1", "setting": "Fusarium solani", "result": ">16", "unit": "µg/mL"}]}]}
